The text below walks through data of patent US8618289B2 (Ambit Biosciences Corporation, priority 2008, dated 2013).

The test system of experiment [1] is MEK1 phosphorylation in the A375 human melanoma cell line. Put plainly: cells. The note with it: A-375, read-out: pMEK IC50.
Experiment [2] relates to A375 cells. Description: cells. The conditions noted are these: Homo sapiens, A-375, read-out: A375 Viability EC50.
In experiment [3] the target is T1, RAF kinases (Homo sapiens, UniProt P15056). The conditions noted are these: read-out: BRAF WT Kd; BRAF WT.
T1 sequence (P15056 whole entry): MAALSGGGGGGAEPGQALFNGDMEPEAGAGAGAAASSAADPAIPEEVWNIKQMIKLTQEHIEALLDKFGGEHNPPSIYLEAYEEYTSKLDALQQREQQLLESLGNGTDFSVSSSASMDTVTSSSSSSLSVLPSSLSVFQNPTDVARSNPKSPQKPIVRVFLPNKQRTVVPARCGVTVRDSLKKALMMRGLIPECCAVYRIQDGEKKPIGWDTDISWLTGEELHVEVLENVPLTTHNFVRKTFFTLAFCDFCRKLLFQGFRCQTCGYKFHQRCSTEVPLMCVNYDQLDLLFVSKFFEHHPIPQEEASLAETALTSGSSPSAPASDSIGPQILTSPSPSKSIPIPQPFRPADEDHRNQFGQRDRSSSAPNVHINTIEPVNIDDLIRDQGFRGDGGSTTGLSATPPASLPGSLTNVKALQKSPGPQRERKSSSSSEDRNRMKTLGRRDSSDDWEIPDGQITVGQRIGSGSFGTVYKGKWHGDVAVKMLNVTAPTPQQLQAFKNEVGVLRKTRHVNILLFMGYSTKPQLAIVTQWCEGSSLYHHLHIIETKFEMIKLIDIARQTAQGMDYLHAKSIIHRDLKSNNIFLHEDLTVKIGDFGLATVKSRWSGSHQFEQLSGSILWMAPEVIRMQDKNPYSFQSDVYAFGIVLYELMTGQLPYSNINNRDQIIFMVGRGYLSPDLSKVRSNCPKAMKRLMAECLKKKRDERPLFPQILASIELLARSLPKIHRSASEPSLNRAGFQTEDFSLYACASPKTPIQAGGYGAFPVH
For experiment [4], the target named is T2, RAF kinases (Homo sapiens, UniProt P04049). The note with it: read-out: RAF1 Kd; RAF1.
T2 sequence (P04049 whole entry): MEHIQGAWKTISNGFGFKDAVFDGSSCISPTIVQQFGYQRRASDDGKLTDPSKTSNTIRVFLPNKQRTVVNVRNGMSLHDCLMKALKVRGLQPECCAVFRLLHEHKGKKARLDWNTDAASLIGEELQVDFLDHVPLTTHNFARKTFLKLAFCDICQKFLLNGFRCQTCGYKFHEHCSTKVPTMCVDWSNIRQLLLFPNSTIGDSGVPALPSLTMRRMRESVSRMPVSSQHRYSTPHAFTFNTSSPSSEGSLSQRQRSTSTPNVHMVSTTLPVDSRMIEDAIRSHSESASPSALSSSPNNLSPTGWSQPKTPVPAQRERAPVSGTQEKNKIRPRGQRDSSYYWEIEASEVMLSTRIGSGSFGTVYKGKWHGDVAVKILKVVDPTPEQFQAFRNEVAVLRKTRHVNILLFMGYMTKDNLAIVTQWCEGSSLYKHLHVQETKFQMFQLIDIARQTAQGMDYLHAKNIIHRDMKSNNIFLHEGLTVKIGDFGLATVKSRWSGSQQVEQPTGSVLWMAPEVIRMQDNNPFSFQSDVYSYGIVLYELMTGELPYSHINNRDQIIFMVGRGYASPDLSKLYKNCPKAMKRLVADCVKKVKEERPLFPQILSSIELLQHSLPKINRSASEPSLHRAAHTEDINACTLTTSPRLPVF
In experiment [5] the target is T3, RAF kinases (Homo sapiens, UniProt P15056, V600E). The note with it: read-out: BRAF V600E Kd; BRAF V600E.
T3 sequence (P15056 whole entry V600E): as the sequence (P15056 whole entry) above, with V600E counted along it
The target of experiment [6] is T2, RAF kinases. Description: biochemical.
In experiment [7] the target is T3, RAF kinases. Description: biochemical.
Experiment [8] concerns the target T1, RAF kinases. Put plainly: biochemical.

The structures appear in SMILES notation. Where two headings read alike, the source gives them in different places.

The term IC50 denotes the point on the concentration scale where inhibition reaches its midpoint. In general, EC50 refers to the concentration that produces a half-maximal response. For orientation: Kd means the equilibrium constant for the complex coming apart. Turning to `COc1cc2ncnc(Oc3cccc(NC(=O)Nc4cc(C(C)(C)C)on4)c3C)c2cc1OC` [Ex290, 1-(5-tert-butylisoxazol-3-yl)-3-(3-(6,7-dimethoxyquinazolin-4-yloxy)-2-methylphenyl)urea], in experiment [1], the IC50 is less than 250 nM. Moreover, in experiment [2], the EC50 is 250 to 500 nM. In addition, the Kd in experiment [3], in experiment [4] and in experiment [5] was less than 250 nM throughout.

On to `COCCOc1cc2ncnc(Oc3cccc(NC(=O)Nc4ccc(C(F)(F)F)c(OC)c4)c3)c2cc1OC` [Ex 223, 1-(3-methoxy-4-(trifluoromethyl)phenyl)-3-(3-(6-methoxy-7-(2-methoxyethoxy)quinazolin-4-yloxy)phenyl)urea], for which the IC50 in experiment [1] was greater than 1000 nM. Also, in experiment [2], the EC50 is greater than 1000 nM. Moreover, the results for the dissociation constant (Kd) in experiment [6], in experiment [7] and in experiment [3] were 500 to 1000 nM, 250 to 500 nM and greater than 1000 nM, respectively.

For the molecule `COCCOc1cc2ncnc(Sc3cccc(NC(=O)Nc4cc(C(C)(C)C)nn4-c4ccccc4)c3)c2cc1OC` [Ex 236, 1-(3-tert-butyl-1-phenyl-1H-pyrazol-5-yl)-3-(3-(6-methoxy-7-(2-methoxyethoxy)quinazolin-4-ylthio)phenyl)urea], in experiment [1], the concentration for half-maximal inhibition (IC50) was less than 250 nM. Further, the Kd in experiment [3], in experiment [4] and in experiment [5] was greater than 1000 nM each time.

With `COc1cc2ncnc(Sc3cccc(NC(=O)Nc4cc(C(C)(C)F)no4)c3)c2cc1OCCCN1CCS(=O)(=O)CC1` [Ex 245, 1-(3-(2-fluoropropan-2-yl)isoxazol-5-yl)-3-(3-(7-methoxy-6-(4,4-dioxo-3-thiomorpholinopropoxy)quinazolin-4-ylthio)phenyl)urea], in experiment [1], the half-inhibitory concentration (IC50) is less than 250 nM. In addition, in experiment [2], the concentration giving a half-maximal response (EC50) is greater than 1000 nM. Also, the values for the Kd in experiment [6], in experiment [3] and in experiment [5] were 250 to 500 nM, less than 250 nM and less than 250 nM, respectively.

On to `COc1cc2c(Oc3cccc(NC(=O)Nc4cc(C(C)(C)F)no4)c3)ncnc2cc1OCCN1CCOCC1` [Ex 251, 1-(3-(2-fluoropropan-2-yl)isoxazol-5-yl)-3-(3-(6-methoxy-7-(2-morpholinoethoxy)quinazolin-4-yloxy)phenyl)urea], for which the 50% inhibitory concentration (IC50) in experiment [1] is 250 to 500 nM. Also, the EC50 in experiment [2] was greater than 1000 nM. Besides, the values for the dissociation constant (Kd) in experiment [6], in experiment [3] and in experiment [5] were 250 to 500 nM, less than 250 nM and less than 250 nM, respectively.

In the case of `COc1cc2ncnc(Oc3cccc(NC(=O)Nc4cc(C(F)(F)F)no4)c3)c2cc1OC` [Ex 254, 1-(3-(6,7-dimethoxyquinazolin-4-yloxy)phenyl)-3-(3-(trifluoromethyl)isoxazol-5-yl)urea], the half-inhibitory concentration (IC50) in experiment [1] is greater than 1000 nM. Also, the EC50 in experiment [2] is greater than 1000 nM. Moreover, the equilibrium dissociation constant (Kd) in experiment [8] is 250 to 500 nM; in experiment [4], less than 250 nM; in experiment [5], less than 250 nM.

Consider `COc1cc2ncnc(Oc3cccc(NC(=O)Nc4cc(C(C)(C)C(F)(F)F)on4)c3)c2cc1OC` [Ex 259, 1-(3-(6,7-dimethoxyquinazolin-4-yloxy)phenyl)-3-(5-(1,1,1-trifluoro-2-methylpropan-2-yl)isoxazol-3-yl)urea], for which, in experiment [1], the half-inhibitory concentration (IC50) is less than 250 nM. Further, the EC50 in experiment [2] is less than 250 nM. Further, the Kd in experiment [8], in experiment [4] and in experiment [5] was less than 250 nM throughout.

In the case of `COc1cc2ncnc(Oc3cccc(NC(=O)Nc4cc(C(C)(C)C(F)(F)F)on4)c3F)c2cc1OC` [Ex 265, 1-(3-(6,7-dimethoxyquinazolin-4-yloxy)-2-fluorophenyl)-3-(5-(1,1,1-trifluoro-2-methylpropan-2-yl)isoxazol-3-yl)urea], in experiment [1], the IC50 was less than 250 nM. Moreover, the EC50 in experiment [2] was in the range of 250 to 500 nM. The dissociation constant (Kd) was 250 to 500 nM in experiment [8], less than 250 nM in experiment [4] and less than 250 nM in experiment [5].

On to `COc1cc2ncnc(Oc3cc(NC(=O)Nc4cc(C(C)(C)C(F)(F)F)on4)ccc3F)c2cc1OC` [Ex 266, 1-(3-(6,7-dimethoxyquinazolin-4-yloxy)-4-fluorophenyl)-3-(5-(1,1,1-trifluoro-2-methylpropan-2-yl)isoxazol-3-yl)urea], for which the half-inhibitory concentration (IC50) in experiment [1] was less than 250 nM. Further, the equilibrium dissociation constant (Kd) in experiment [3], in experiment [4] and in experiment [5] was less than 250 nM each time.

Consider `COCCOc1cc2ncnc(Oc3cccc(NC(=O)Nc4cc(C(C)(C)C)nn4-c4ccc(C)cc4)c3)c2cc1OC` [Ex 276, 1-(3-tert-butyl-1-p-tolyl-1H-pyrazol-5-yl)-3-(3-(6-methoxy-7-(2-methoxyethoxy)quinazolin-4-yloxy)phenyl)urea], for which the concentration for half-maximal inhibition (IC50) in experiment [1] was less than 250 nM. In addition, the values for the dissociation constant Kd in experiment [3], in experiment [4] and in experiment [5] were greater than 1000 nM, greater than 1000 nM and less than 250 nM, respectively.

For the molecule `COc1cc2ncnc(Oc3cccc(NC(=O)Nc4cc(C(C)(C)C)nn4-c4ccccc4)c3C)c2cc1OC` [Ex 289, 1-(3-tert-butyl-1-phenyl-1H-pyrazol-5-yl)-3-(3-(6,7-dimethoxyquinazolin-4-yloxy)-2-methylphenyl)urea], the half-maximal inhibitory concentration (IC50) in experiment [1] was less than 250 nM. Besides, the EC50 in experiment [2] lay in the range of 500 to 1000 nM. The Kd in experiment [6] is 500 to 1000 nM; in experiment [3], greater than 1000 nM; in experiment [5], less than 250 nM.

As for `COc1cc2ncnc(Oc3cc(NC(=O)Nc4cc(C(C)(CF)CF)on4)ccc3F)c2cc1OC` [Ex 294, 1-(5-(1,3-difluoro-2-methylpropan-2-yl)isoxazol-3-yl)-3-(3-(6,7-dimethoxyquinazolin-4-yloxy)-4-fluorophenyl)urea], the IC50 in experiment [1] was less than 250 nM. Further, the dissociation constant (Kd) in experiment [3], in experiment [4] and in experiment [5] was less than 250 nM throughout.

With `COc1cc2ncnc(Oc3cccc(NC(=O)Nc4cc(C(C)(C)C)nn4-c4ccccc4)c3F)c2cc1OC` [Ex 295, 1-(3-tert-butyl-1-phenyl-1H-pyrazol-5-yl)-3-(3-(6,7-dimethoxyquinazolin-4-yloxy)-2-fluorophenyl)urea], the IC50 in experiment [1] fell in the range of 500 to 1000 nM. Further, the EC50 in experiment [2] was greater than 1000 nM. The dissociation constant (Kd) in experiment [6] is 500 to 1000 nM; in experiment [3] it was greater than 1000 nM; in experiment [5] it was less than 250 nM.

As to `COc1cc2ncnc(Sc3cccc(NC(=O)Nc4cc(C5CCC5)nn4-c4ccccc4)c3)c2cc1OC` [Ex 356, 1-(3-cyclobutyl-1-phenyl-1H-pyrazol-5-yl)-3-(3-(6,7-dimethoxyquinazolin-4-ylthio)phenyl)urea], the IC50 in experiment [1] fell in the range of 250 to 500 nM. The EC50 in experiment [2] was less than 250 nM. For the same molecule, the Kd in experiment [6] was 500 to 1000 nM; in experiment [3], greater than 1000 nM; in experiment [5] it was less than 250 nM.

`COc1cc2ncnc(Oc3cccc(NC(=O)Nc4cc(C(C)(C)C)nn4Cc4ccccc4)c3)c2cc1OC` [Ex 357, 1-(1-benzyl-3-tert-butyl-1H-pyrazol-5-yl)-3-(3-(6,7-dimethoxyquinazolin-4-yloxy)phenyl)urea]: the IC50 in experiment [1] fell in the range of 250 to 500 nM. In addition, in experiment [2], the EC50 is greater than 1000 nM. Further, the Kd is 500 to 1000 nM in experiment [8], greater than 1000 nM in experiment [4] and less than 250 nM in experiment [5].

With `COc1cc2ncnc(Sc3cccc(NC(=O)Nc4cc(C(C)(C)C)nn4Cc4ccccc4)c3)c2cc1OC` [Ex 358, 1-(1-benzyl-3-tert-butyl-1H-pyrazol-5-yl)-3-(3-(6,7-dimethoxyquinazolin-4-ylthio)phenyl)urea], in experiment [1], the concentration for half-maximal inhibition (IC50) was in the range of 250 to 500 nM. Also, the Kd in experiment [3] is greater than 1000 nM; in experiment [4], greater than 1000 nM; in experiment [5] it was less than 250 nM.

For `COc1cc2ncnc(Oc3cccc(NC(=O)Nc4cc(C(C)(C)C)nn4-c4cccc(F)c4)c3)c2cc1OC` [Ex 359, 1-(3-tert-butyl-1-(3-fluorophenyl)-1H-pyrazol-5-yl)-3-(3-(6,7-dimethoxyquinazolin-4-yloxy)phenyl)urea], the concentration for half-maximal inhibition (IC50) in experiment [1] is less than 250 nM. The dissociation constant (Kd) is greater than 1000 nM in experiment [3], greater than 1000 nM in experiment [4] and less than 250 nM in experiment [5].

Regarding `COc1cc2ncnc(Oc3cccc(NC(=O)Nc4cc(C(C)(C)C)nn4-c4ccc(C(C)(C)C)cc4)c3)c2cc1OC` [Ex 369, 1-(3-tert-butyl-1-(4-tert-butylphenyl)-1H-pyrazol-5-yl)-3-(3-(6,7-dimethoxyquinazolin-4-yloxy)phenyl)urea], the IC50 in experiment [1] is less than 250 nM. The EC50 in experiment [2] is greater than 1000 nM. The Kd was 500 to 1000 nM in experiment [8], greater than 1000 nM in experiment [4] and less than 250 nM in experiment [5].

As to `COc1cc2ncnc(Sc3cccc(NC(=O)Nc4cc(C(C)(C)C)nn4-c4ccc(C(C)(C)C)cc4)c3)c2cc1OC` [Ex 370, 1-(3-tert-butyl-1-(4-tert-butylphenyl)-1H-pyrazol-5-yl)-3-(3-(6,7-dimethoxyquinazolin-4-ylthio)phenyl)urea], the concentration for half-maximal inhibition (IC50) in experiment [1] was less than 250 nM. Also, the dissociation constant Kd in experiment [3] is greater than 1000 nM; in experiment [4], greater than 1000 nM; in experiment [5] it was less than 250 nM.

Consider `COc1cc2ncnc(Sc3cccc(NC(=O)Nc4cc(C(C)(C)C#N)no4)c3)c2cc1OC` [Ex 381, 1-(3-(2-cyanopropan-2-yl)isoxazol-5-yl)-3-(3-(6,7-dimethoxyquinazolin-4-ylthio)phenyl)urea], for which the IC50 in experiment [1] is less than 250 nM. The Kd in experiment [3], in experiment [4] and in experiment [5] was less than 250 nM each time.

With `COc1cc2ncnc(Oc3cc(NC(=O)Nc4cc(C(F)(F)F)nn4-c4ccccc4)ccc3F)c2cc1OC` [Ex 397, 1-(3-(6,7-Dimethoxyquinazolin-4-yloxy)-4-fluorophenyl)-3-(1-phenyl-3-(trifluoromethyl)-1H-pyrazol-5-yl)urea], the half-maximal inhibitory concentration (IC50) in experiment [1] was less than 250 nM. Further, the concentration for a half-maximal effect (EC50) in experiment [2] was 250 to 500 nM. The equilibrium dissociation constant (Kd) was 500 to 1000 nM in experiment [6], greater than 1000 nM in experiment [3] and less than 250 nM in experiment [5].
